Test results taken from patent publication US8637237B2, “Methods, compositions, and systems for the identification of species-specific or developmental stage-specific insecticides” (The University of North Carolina at Greensboro, priority 2003, dated 2014).
“And” between values parts separate entries of the source, which are not always exact repeats. Equal entries are not always repeated.

Legend:
[1] = biological target: T1, FXR and USP (Rattus norvegicus, UniProt Q62735); test: FXR with USP, reporter in CHO cells; type: cell-based
T1 construct: expressed in transfected cells; host or cells: CHO
T1 sequence (Q62735 1-469): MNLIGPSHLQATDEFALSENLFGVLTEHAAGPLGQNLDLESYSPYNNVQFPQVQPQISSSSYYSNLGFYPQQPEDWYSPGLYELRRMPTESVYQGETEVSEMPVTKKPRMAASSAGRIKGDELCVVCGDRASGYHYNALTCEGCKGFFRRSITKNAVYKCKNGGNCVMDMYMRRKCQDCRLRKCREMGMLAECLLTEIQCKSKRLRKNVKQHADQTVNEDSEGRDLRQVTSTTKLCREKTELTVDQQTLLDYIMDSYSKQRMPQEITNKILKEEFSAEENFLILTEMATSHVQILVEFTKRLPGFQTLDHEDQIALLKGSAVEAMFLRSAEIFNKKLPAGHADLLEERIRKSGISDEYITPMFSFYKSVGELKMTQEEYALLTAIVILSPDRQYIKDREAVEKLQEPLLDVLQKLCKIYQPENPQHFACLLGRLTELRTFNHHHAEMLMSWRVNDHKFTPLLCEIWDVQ
Method: These experiments employed a mammalian cell culture system using Chinese hamster ovary cells (CHO) to evaluate the transcriptional function of Drosophila melanogaster EcR and USP using methods described previously (U.S. Patent Application Publication No: 2005/0049230; Henrich et al, 2003). Cells were seeded in 6-well polypropylene culture plates (Falcon) with 10^5 cells per well on the day prior to transfection. Transfection was subsequently performed using either calcium phosphate (Kitareewan et al., 1996, Mol. Biol. Cell, 7:1153-1196) or a GenePorter reagent (Gene Therapy Systems, Inc; San Diego, Calif.) following manufacturer's protocols. Each well received 1.25 μg of (EcRE)5-ΔMTV-CAT (five copies of the hsp27 EcRE inserted into an mouse mammary tumor virus (MTV) promoter upstream of the chloramphenicol acetyltransferase (CAT) gene) or (EcRE)5-ΔMTV-LUC (the same promoter attached to firefly luciferase), 1.25 μg of pCH111 (SV40 early promoter linked to the β-galactosidase gene) to normalize CAT activity, and 0.25 μg of each expression plasmid (EcR, FXR, RXR, USP) that was tested. The cells were incubated with plasmid DNA for seven hours and then washed with 1×PBS. Muristerone A (murA; Alexis Biochemicals) or 20-hydroxyecdysone (20E; Sigma) dissolved in ethanol to a concentration of 10 mM was diluted as necessary to the final assay concentration (FAC) in 2 ml of fresh incubation medium that was then applied to the cells. Similarly, JHIII (Sigma) was dissolved in dimethyl sulfoxide (DMSO) to a concentration of 80 μM and diluted into the incubation medium to its final assay concentration (20, 40, 80, 160 μM). […] A corresponding volume of ethanol and DMSO were added to control cells for all experiments. For all experiments, the cells were allowed to incubate with the medium for 24 hours before collection and cell lysates were prepared by described methods (Kitareewan et al., 1996). Both β-galactosidase and CAT reporter activity were measured based on previously used methods (Kitareewan et al, 1996). […]

[2] = biological target: T2, FXR (Rattus norvegicus, UniProt Q62735); test: cell-based; conditions: for FXR-dependent CAT activity, induction: 50 μM
T2 sequence (Q62735 1-469): T1 sequence (Q62735 1-469)
T2 sequence (P28700 1-467 partner): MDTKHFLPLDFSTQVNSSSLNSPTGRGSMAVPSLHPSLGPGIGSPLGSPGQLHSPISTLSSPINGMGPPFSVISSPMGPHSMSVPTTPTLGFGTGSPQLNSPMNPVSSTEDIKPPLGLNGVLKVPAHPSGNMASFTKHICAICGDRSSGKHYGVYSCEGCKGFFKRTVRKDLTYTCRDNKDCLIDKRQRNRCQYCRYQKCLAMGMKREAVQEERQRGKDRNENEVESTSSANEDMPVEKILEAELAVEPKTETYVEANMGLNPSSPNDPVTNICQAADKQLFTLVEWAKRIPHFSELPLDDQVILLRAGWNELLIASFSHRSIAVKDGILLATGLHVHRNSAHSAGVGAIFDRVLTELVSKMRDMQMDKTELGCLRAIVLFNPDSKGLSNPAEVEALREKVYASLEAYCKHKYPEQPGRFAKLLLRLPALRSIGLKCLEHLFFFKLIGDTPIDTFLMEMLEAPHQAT
Summary of the method: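 CHO cells co-transfected with FXR, mouse RXRα and a (EcRE)5-ΔMTV-CAT reporter, with β-galactosidase for normalization. An RXR-dependent CRBPII-CAT reporter was run in parallel. Cells were exposed to candidate juvenoids for 24 h; CAT activity normalized to β-gal and expressed as fold induction over vehicle controls.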

[3] = final dose of 50 ∝M, 1 = induction less than 2-fold below cytotoxic doses

Molecule	elevation of FXR-mediated activity by ecdysteroid added with JHIII [1]	FXR-dependent activity, induction ([2]; dose not stated)	FXR ACTIVITY (fold-induction) [2, 3] [fold-induction]	FXR-dependent CAT activity, induction [2]	further results
CC(C)(O)CC[C@@H](O)[C@](C)(O)[C@H]1CC[C@@]2(O)C3=CC(=O)[C@@H]4C[C@@H](O)[C@@H](O)C[C@]4(C)[C@H]3CC[C@]12C [20E, 20-hydroxyecdysone]	no elevation	unresponsive	–	–	–
COC(=O)/C=C(\C)CC/C=C(\C)CC[C@H]1OC1(C)C [JHIII, juvenile hormone III]	–	–	20	–	response of FXR and USP to JHIII ([1]; CHO cells): low level response; dose that elicits FXR-dependent activity in the CHO assay [2]: 2 µM; FXR-dependent CAT activity, induction ([2]; listed as JH III): 15 fold; FXR-dependent CAT activity, induction ([2]; listed as juvenile hormone III): 20 fold
CC(C)=CCCC(C)=CCCC(C)=CC(=O)O [farnesoic acid]	–	–	3	2 fold and 3 fold	–
COC(=O)/C=C(\C)CC/C=C(\C)CCC=C(C)C [methyl farnesoate]	–	–	–	6 fold	–
CC(C)CC[C@@H](O)[C@](C)(O)[C@H]1CC[C@@]2(O)C3=CC(=O)[C@]4(O)C[C@@H](O)[C@@H](O)C[C@]4(C)[C@H]3[C@H](O)C[C@]12C [murA, muristerone A]	no elevation	unresponsive	–	–	–
juvocimene	–	–	–	–	FXR-dependent activity, induction ([2]; 25 μM): 5 fold; FXR ACTIVITY (fold-induction) ([2]; dose 25 μM): 9 fold-induction; RXR mediated transcription, increase ([2]; plant-derived JH agonists examined as FXR effectors): 10 fold
